MIC50 and antifungal activity data for two compounds are collected here from patent US10441550B2, “Nanofibrous materials as drug, protein, or genetic release vehicles” (BioSurfaces, Inc., priority 2005, dated 2019).

For experiment [1] the following is noted: organism not given; cited from earlier work.
Another experiment concerns Candida albicans. Kind of experiment: Turbidity assay (broth macrodilution, NCCLS M27-A). The conditions noted are these: 40 micrograms Diflucan in solution; activity decreases as inoculum increases. It counts as cell-based.

Description for Candida albicans: Candida albicans was purchased from ATCC.
A broth macrodilution assay was performed based on the NCCLS M27-A protocol. The stock fungal inoculum concentration was determined via backplating a set volume of the diluted fungus broth onto Trypticase Soy Agar plates. The number of colony forming units (cfu) grown per plate was then counted and extrapolated to determine the starting Candida concentration.
The stock fungus solution was then diluted to 10^6, 10^5 and 10^4 cfu/ml. After incubating the individual test segments in 2 ml of the fungus solutions for 24 hours at 30° C., the optical density of the broth solutions was measured at 492 nm.

On to `O=C(O)c1cn(C2CC2)c2cc(N3CCNCC3)c(F)cc2c1=O` [Cipro, Ciprofloxacin], for which the MIC50 in experiment [1] is on record as 0.26 micrograms per ml.
In the case of `OC(Cn1cncn1)(Cn1cncn1)c1ccc(F)cc1F` [Diflucan, Fluconazole], the antifungal activity result in the experiment with Candida albicans is “excellent antifungal activity”.
